From US20020176842A1, “Extended release of active ingredients” (priority 2001, published 2002)

Assay: Spectrophotometric absorption test method (uptake of drug by unloaded resin)
Assay type: physicochemical
Details: within 5 hours; 55 ml of 98 mg/l indomethacin in simulated intestinal fluid, 43 mg Cholestyramine USP, 318 nm
Description: It is important that the drug be absorbed by the resin. The following test method is useful in determining drug absorption by the resin. In this illustration of the test method, indomethacin and cholestyramine are used. Equipment was set up as described in Example 1, except that the effluent from the uv cell was directed back to the inlet of the pump to produce a circulation flow. 55 ml of a 98 mg/1 solution of indomethacin in simulated intestinal fluid, prepared as described below, was charged to the filtration cell and the pump and stirrer started. Flow rate was approximately 6 ml/min. Absorbance readings were taken on the uv spectrophotometer at a wavelength of 318nm until a steady baseline was obtained. 43 mg of Cholestyramine USP that had been screened to remove particles <75 microns was then added to the cell. Absorbance readings were then taken at frequent intervals to observe the uptake of indomethacin. The absorbance readings were used to calculate the indomethacin concentration from a suitably determined calibration curve and to calculate the total amount of indomethacin absorbed by the resin. In the case of the indomethacin, 92% was absorbed within 5 hours.
Preparation of simulated intestinal fluid: a solution of 6.8 g/l potassium dihydrogen phosphate in deionized water was prepared and sufficient 0.2 mol/1 sodium hydroxide s added to achieve a pH of 7.5.

- indomethacin absorbed by the resin: 92%
Compound: COc1ccc2c(c1)c(CC(=O)O)c(C)n2C(=O)c1ccc(Cl)cc1 [indomethacin]
